Assay results from patent US10858626B2, “Adoptive immunotherapy for treating cancer” (UNIVERSITÉ DE LAUSANNE, priority 2014, dated 2020).

Key:
breast tumor fragments = test: Expansion of T cells in vitro from breast tumor fragments treated with kinase inhibitors (Example 2); assay type: cell-based, human; settings: first 20 days of culture, high doses IL-2, 12 h inhibitor treatment
Excerpt: The fragments were washed, placed in culture as previously described and 20 days later the number of T cells obtained were counted. Antibodies and multimers of MHC class I: antibodies specific for CD4, CD8, CD3 and CD28 were from Beckton Dikinson. Antibodies specific for PD-1 were from Affimetrix eBioscience (clone J105, PD-1 PerCP-eF710), anti-LAG-3 antibodies were from Enzo Life Science (clone 17B4, LAG-3-FITC), anti-CD137 antibodies were from Biolegend (clone 4B4-1, CD137-BV605). Fluorescently labelled Her2/neu MHC-classI multimers were from TCMetrix (Epalinges, Swizerland).

kinases = settings: other kinases inhibited; cited from earlier work
VEGFR-1 = VEGFR-1 (Homo sapiens, UniProt P17948); settings: cited from earlier work
TIE-2 = TIE-2 (Homo sapiens, UniProt Q02763); settings: read-out: IC 50 TIE-2; cited from earlier work
Chain of TIE-2 (Q02763 23-1124, species assumed): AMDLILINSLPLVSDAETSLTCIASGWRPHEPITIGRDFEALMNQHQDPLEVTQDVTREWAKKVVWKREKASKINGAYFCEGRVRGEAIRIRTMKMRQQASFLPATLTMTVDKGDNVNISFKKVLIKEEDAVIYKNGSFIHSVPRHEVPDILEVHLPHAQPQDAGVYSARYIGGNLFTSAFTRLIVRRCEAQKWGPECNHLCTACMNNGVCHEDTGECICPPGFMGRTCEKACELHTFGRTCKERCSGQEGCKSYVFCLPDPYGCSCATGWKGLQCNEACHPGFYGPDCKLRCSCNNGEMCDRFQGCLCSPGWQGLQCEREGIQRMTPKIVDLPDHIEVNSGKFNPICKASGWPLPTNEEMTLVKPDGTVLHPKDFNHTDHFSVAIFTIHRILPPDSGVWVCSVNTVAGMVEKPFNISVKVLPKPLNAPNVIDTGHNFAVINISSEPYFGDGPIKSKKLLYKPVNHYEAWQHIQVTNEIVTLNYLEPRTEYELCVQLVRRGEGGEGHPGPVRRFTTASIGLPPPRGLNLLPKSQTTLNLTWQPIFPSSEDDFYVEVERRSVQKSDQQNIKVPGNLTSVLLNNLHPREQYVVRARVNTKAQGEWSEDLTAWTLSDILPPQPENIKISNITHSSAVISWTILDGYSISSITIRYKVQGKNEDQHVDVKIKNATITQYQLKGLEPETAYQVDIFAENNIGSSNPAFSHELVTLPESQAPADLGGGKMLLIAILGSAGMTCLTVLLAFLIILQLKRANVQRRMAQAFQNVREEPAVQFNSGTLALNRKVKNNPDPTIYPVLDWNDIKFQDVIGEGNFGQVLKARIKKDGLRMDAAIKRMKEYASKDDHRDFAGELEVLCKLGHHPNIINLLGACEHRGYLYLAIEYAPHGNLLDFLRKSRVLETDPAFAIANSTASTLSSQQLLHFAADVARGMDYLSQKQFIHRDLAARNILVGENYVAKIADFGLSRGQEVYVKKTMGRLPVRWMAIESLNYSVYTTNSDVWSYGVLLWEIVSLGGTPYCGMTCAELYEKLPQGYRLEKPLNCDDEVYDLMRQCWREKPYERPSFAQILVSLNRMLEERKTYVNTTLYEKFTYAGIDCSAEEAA

Chain of VEGFR-1 (P17948 27-1338, species assumed): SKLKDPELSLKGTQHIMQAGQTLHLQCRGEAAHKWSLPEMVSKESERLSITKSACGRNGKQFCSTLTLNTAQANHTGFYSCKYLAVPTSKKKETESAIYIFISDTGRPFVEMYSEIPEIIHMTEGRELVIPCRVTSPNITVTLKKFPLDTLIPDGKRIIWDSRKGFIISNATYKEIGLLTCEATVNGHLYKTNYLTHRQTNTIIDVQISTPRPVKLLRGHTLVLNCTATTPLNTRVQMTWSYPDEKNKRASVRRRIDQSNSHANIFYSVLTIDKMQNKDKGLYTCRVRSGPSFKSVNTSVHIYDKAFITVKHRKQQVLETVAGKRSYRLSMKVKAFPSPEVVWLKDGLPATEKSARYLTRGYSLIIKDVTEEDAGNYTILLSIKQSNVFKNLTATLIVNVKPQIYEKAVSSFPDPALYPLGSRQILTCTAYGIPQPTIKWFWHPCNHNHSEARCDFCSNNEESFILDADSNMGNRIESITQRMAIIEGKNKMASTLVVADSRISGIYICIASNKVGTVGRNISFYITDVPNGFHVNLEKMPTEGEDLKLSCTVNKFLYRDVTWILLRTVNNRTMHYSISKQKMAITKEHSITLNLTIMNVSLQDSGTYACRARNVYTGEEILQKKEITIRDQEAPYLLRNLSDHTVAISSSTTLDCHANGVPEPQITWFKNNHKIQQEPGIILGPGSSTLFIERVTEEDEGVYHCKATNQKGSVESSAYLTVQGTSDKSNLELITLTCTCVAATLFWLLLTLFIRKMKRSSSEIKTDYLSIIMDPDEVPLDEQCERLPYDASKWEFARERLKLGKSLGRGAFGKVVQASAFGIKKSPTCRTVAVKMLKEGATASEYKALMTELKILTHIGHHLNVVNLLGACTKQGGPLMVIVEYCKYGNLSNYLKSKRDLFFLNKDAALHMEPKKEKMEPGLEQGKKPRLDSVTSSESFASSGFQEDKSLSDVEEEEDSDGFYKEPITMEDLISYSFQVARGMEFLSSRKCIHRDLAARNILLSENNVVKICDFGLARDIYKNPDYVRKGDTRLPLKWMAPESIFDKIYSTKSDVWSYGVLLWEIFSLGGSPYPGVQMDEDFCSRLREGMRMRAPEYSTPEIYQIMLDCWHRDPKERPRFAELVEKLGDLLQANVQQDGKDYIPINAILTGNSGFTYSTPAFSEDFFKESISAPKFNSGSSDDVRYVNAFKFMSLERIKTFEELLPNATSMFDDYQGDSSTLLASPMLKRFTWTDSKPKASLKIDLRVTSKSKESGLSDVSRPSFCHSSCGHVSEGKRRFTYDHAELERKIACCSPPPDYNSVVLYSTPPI

| Compound | Additional inhibition reported (kinases) | IC50 (TIE-2) [nM] | other results |
| --- | --- | --- | --- |
| COc1ccc2cc(-c3[nH]c(-c4ccc([S+](C)[O-])cc4)nc3-c3ccncc3)ccc2c1 (centres unmarked) [SB633825, 4-(5-(6-methoxynaphthalen-2-yl)-2-(4-(methylsulfinyl)phenyl)-1H-imidazol-4-yl)pyridine] | p38, PDGFR1 |  | Number of T cells expanded per 1 mm3 of breast tumor tissue (breast tumor fragments): more than one million |
| CNC(=O)c1cc(Oc2ccc(NC(=O)Nc3cc(C(C)(C)C)nn3-c3ccc4ncccc4c3)c(F)c2)ccn1 [Rebastinib (DCC-2036), Rebastinib] |  |  | IC50 (VEGFR-1): 12 nM |
| O=C(Nc1cc(Oc2cc(F)c(NC(=O)C3(C(=O)Nc4ccc(F)cc4)CC3)cc2F)ccn1)C1CC1 [Altiratinib (DCC-2701), Altiratinib] | Met | 2 |  |
| COc1cc2nccc(Oc3ccc(NC(=O)Nc4cc(C)on4)c(Cl)c3)c2cc1OC [Tivozanib] | PDGFR, c-Kit |  |  |
| Clc1ccc(Nc2nnc(Cc3ccncc3)c3ccccc23)cc1 [PTK787, Vatalanib] | c-Kit, PDGFR |  |  |
| Cc1ccc(OC(=O)N(CC(=O)N[C@@H](C)C2CCCCC2)Cc2ccc(-c3cncc(C(=O)O)c3)cc2)cc1 [Compound 7, 5-[4-[[[2-[[(1S)-1-Cyclohexylethyl]amino]-2-oxoethyl][(4methylphenoxy)carbonyl]amino]methyl]phenyl]-3-pyridinecarboxylic acid] |  | 300 |  |
